Broadly, the half-life is how long it takes for the measured level to halve.

The structures appear in SMILES notation.

Here are results for two compounds from patent US12329765B2, “Targeted nanoparticle for the treatment of traumatic brain injury and other CNS diseases” (priority 2021, dated 2025).

The conditions of data set [1]: in vivo; cited from earlier work.
Data set [2] in a line: Minocycline forced degradation (acid, base, H2O2, light) by HPLC. In kind it is physicochemical. From the text: Measuring the drug molecule's stability is essential as it directly impacts the formulation strategy when designing the drug-loaded nanoparticle.
For data set [3] the following is noted: 35 day observation. On the procedure: Before treatment, body weight was determined for all the animals. During the course of observation period of 35 days, the animals were followed up twice daily for symptoms of any adverse effect and were physically examined for the sign of morbidity throughout the study period.
On day 0, 15 and 35, all the animals were weighed, and their weights were recorded.

The nature of data set [4]: In vivo toxicity: gross observable behavioral effects (Irwin). Particulars: 35 days. Details: species or system rat.
For data set [5] the following is noted: rat models; cited from earlier work.

As for `C[C@H]1C[C@H]2[C@@H]3CCC4=CC(=O)C=C[C@]4(C)[C@@]3(F)[C@@H](O)C[C@]2(C)[C@@]1(O)C(=O)COP(=O)(O)O` [free betamethasone phosphate, betamethasone phosphate], the “time to disappearance from the cochlea” value in data set [1] is reported as ≤ 12 h.
As to `CN(C)c1ccc(O)c2c1C[C@H]1C[C@H]3[C@H](N(C)C)C(O)=C(C(N)=O)C(=O)[C@@]3(O)C(O)=C1C2=O` [minocycline, Minocycline], the recovery at 1 h, 100 μg/mL in data set [2] (1 M HCl solution, HCl (1 M, 1 h RT)) is 88.9%; in data set [2] (1 M NaOH solution, NaOH (1 M, 1 h RT)) it was 74%. In data set [2] (UV Light (24 h light exposure)), this compound had a recovery at 24 h, 100 μg/mL of 98.54 ± 0.71%. The “body weight versus saline treated control group” value in data set [3] is recorded as “no reduction in body weight”. Further, the “gross observable behavioral parameters (alertness, visual placing, passivity, spontaneous motor activity, touch response)” value in data set [4] is “mild changes in a few behavioral parameters”. For the same compound, the half-life in data set [5] was 2 to 3 h.
